Results as given in PubChem BioAssay (NCI).
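Growth conditions: 96-well plates. Treatment: test compound, 48 hours, 5 concentrations. Analysis: linear interpolation between bracketing concentrations; unreached endpoints set to highest concentration. TGI: concentration producing complete growth inhibition.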

How the values were obtained:
Assay in all cases: NCI-60 cell line screen, 48 h
MOLT-4 leukemia = tested on: MOLT-4 leukemia
SK-OV-3 ovarian = tested on: SK-OV-3 ovarian
OVCAR-8 ovarian = tested on: OVCAR-8 ovarian
KM12 colon = tested on: KM12 colon
UACC-257 melanoma = tested on: UACC-257 melanoma
MCF7 breast = tested on: MCF7 breast
MALME-3M melanoma = tested on: MALME-3M melanoma
SR leukemia = tested on: SR leukemia
DU-145 prostate = tested on: DU-145 prostate
U251 CNS = tested on: U251 CNS
HOP-92 NSCLC = tested on: HOP-92 NSCLC
NCI-H23 lung = tested on: NCI-H23 lung
SNB-75 CNS = tested on: SNB-75 CNS
K-562 leukemia = tested on: K-562 leukemia
CCRF-CEM leukemia = tested on: CCRF-CEM leukemia
NCI/ADR-RES ovarian = tested on: NCI/ADR-RES ovarian
HCT-116 colon = tested on: HCT-116 colon
PC-3 prostate = tested on: PC-3 prostate
SW-620 colon = tested on: SW-620 colon
HCT-15 colon = tested on: HCT-15 colon

Compound | TGI (MOLT-4 leukemia) [µM] | TGI (SK-OV-3 ovarian) [µM] | TGI (OVCAR-8 ovarian) [µM] | TGI (KM12 colon) [µM] | TGI (UACC-257 melanoma) [µM] | TGI (MCF7 breast) [µM] | TGI (MALME-3M melanoma) [µM] | TGI (SR leukemia) [µM] | TGI (DU-145 prostate) [µM] | TGI (U251 CNS) [µM] | TGI (HOP-92 NSCLC) [µM] | TGI (NCI-H23 lung) [µM] | TGI (SNB-75 CNS) [µM] | TGI (K-562 leukemia) [µM] | TGI (CCRF-CEM leukemia) [µM] | TGI (NCI/ADR-RES ovarian) [µM] | TGI (HCT-116 colon) [µM] | TGI (PC-3 prostate) [µM] | TGI (SW-620 colon) [µM] | TGI (HCT-15 colon) [µM]
Cc1cc(/N=C/c2ccc(F)cc2)n(-c2ccccc2)n1 | > 100 | > 100 | > 100 | > 100 | > 100 | > 100 | > 100 | > 100 | > 100 | > 100 | > 100 | > 100 | > 100 | > 100 | > 100 | > 100 | > 100 | > 100 | > 100 | > 100
O=c1nc(N2CCNCC2)oc2cc(Cl)oc(=O)c12 | 7.37 | 33.2 | 5.67 | 15.5 | 27.7 | 17.8 | 14.5 | 4.41 | 21.8 | 16 | 15.6 | 27 | 17.4 | > 27.4 | 47.8 | 25.8 | 7.53 | 19.9 | 21.1 | 15
COc1cccc(C2c3cc4c(cc3OC(C)(N3CCCC3)C2C)OCO4)c1 (stereo not given) | > 100 | 41.5 | 64.1 | 17.8 | 70 | 45.7 | 64.7 | > 100 | 49.6 | 35.8 | 42.2 | 71.1 | 26.5 | > 100 | > 100 | 40.2 | 26.6 | 62.2 | > 100 | 44.2
[N-]=[N+]=CC(=O)OC1Cc2ccccc2C1 | > 100 | > 100 | > 100 | > 100 | > 100 | > 100 | > 100 | > 100 | > 84.2 | > 100 | > 100 | > 100 | > 100 | > 100 | > 31.6 | > 100 | > 100 | > 100 | > 100 | > 100
[N-]=[N+]=NCc1nc(N)c2c3c(sc2n1)CCCC3 | > 100 | 24.1 | 3.72 | 2.86 | 25.8 | 16.3 | 3.27 | > 100 | 13.2 | > 25.3 | 1.77 | 3.78 | 20.9 | > 40.6 | > 100 | > 22.2 | 12 | 6.72 | > 100 | 11.4
Cn1c2c(c3ccccc31)CCN1C(=O)CN(C(=O)C3CCCCC3)CC21 (stereo not given) | > 100 | > 100 | > 100 | > 100 | > 100 | > 100 | > 100 | > 100 | > 100 | > 100 | > 100 | > 100 | > 100 | > 100 | > 100 | > 100 | > 100 | > 100 | > 100 | > 100
CCOC(=O)/C=C(\C(=O)OCC)n1ccc(=O)n(Cc2cn(CCCCOC(C)=O)nn2)c1=O | 9.12 | > 65.5 | 20.1 | 31.5 | 32.9 | 23.8 | 4.83 | > 36 | 45.4 | 30.9 | 5.15 | 32.3 | 41.8 | > 34.1 | 4.59 | 53.3 | > 47.4 | 36.9 | 8.38 | 25.3
CC(C)C(C/C=C1\CC(CO)(COC(=O)C(C)(C)C)OC1=O)C(C)C (stereo not given) | 25 | 29 | 31.1 | 28.2 | 32.6 | 37.6 | 23.5 | > 100 | 19.6 | 29.8 | 25 | 19.7 | 15.2 | 44.9 | 42.7 | 32.4 | 22.7 | 20.9 | 17.1 | 29.8
COCOC1C=CCCCC2=CC(C)=C(CC1)O2 (stereo not given) | > 100 | > 100 | > 100 | > 100 | > 100 | > 100 | > 100 | > 100 | > 100 | > 100 | > 100 | > 100 | > 100 | > 100 | > 100 | > 100 | > 100 | > 100 | > 100 | > 100
CC1(C)OC2C(O)C(CO)OC2(C(F)F)O1 (stereo not given) | > 100 | > 100 | > 100 | > 100 | > 100 | > 100 | > 100 | > 100 | > 100 | > 100 | > 100 | > 100 | > 100 | > 100 | > 100 | > 100 | > 100 | > 100 | > 100 | > 100
O=c1oc2c/c(=C\c3ccc([N+](=O)[O-])cc3)c(=O)c3cccc1c3-2 | > 100 | > 100 | > 100 | > 100 | > 100 | > 100 | > 100 | > 100 | > 100 | > 100 | > 100 | > 100 | 88.6 | > 100 | > 100 | > 100 | > 100 | > 100 | > 100 | > 100
CC1=C(/C=C/C(C)=C/C=C/C(C)=C/C(=O)OC2CC(n3cc(F)c(=O)[nH]c3=O)OC2CO)C(C)(C)CCC1 (stereo not given) | 20.2 | 19.7 | 23.6 | 31.4 | 29.6 | 19.5 | 31.9 | > 47.2 | 13.4 | 20 | 36.7 | 20.7 | 18.6 | 14 | 31.8 | 24.9 | 14.4 | 20.8 | 26.9 | 27.6
